According to patent publication US3954780A, “Propionic acid derivatives” (Innothera, priority 1970, dated 1976):
≈ marks a conversion by molar mass, not a printed value. Where a name gives a salt, the structure may show the parent alone.

Experiments:
[1] = tested on: isolated rat duodenum; experiment: Spasmolytic activity of papaverinic type, barium chloride contracture; conditions: Tyrode 38°; for EC50: read-out: Spasmolytic activity Papaverinic type DE 50 (converted)
Method: a. To show activity of the papaverinic type, the contracturant used is barium chloride acting on the isolated rat duodenum.
The average activity of the substances studied has been effected by determining graphically their DE 30 and DE 50 these being expressed in μg for 20 ml of bath.

[2] = tested on: isolated ileum of the guinea-pig; experiment: Spasmolytic activity of atropinic type, acetylcholine chloride contracture; conditions: Tyrode 33°; for EC50: Cavia porcellus, read-out: Spasmolytic activity Atropinic type DE 50 (converted)
From the text: b. To show activity of atropinic type the contracturant used is acetylcholine chloride acting on the isolated ileum of the guinea-pig. […]

Row | EC50 [1] [µg/mL] | EC50 [2] [µg/mL] | SMILES | Spasmolytic activity Papaverinic type DE 30 [1] | Spasmolytic activity Atropinic type DE 30 [2]
1 | 1.75 (≈ 4.61 µM) | 7 (≈ 18.4 µM) | O=C(OCCN1CCCC1)C(Cc1csc2ccccc12)c1ccccc1 (stereo not shown) [Compound 14] | 18.0 μg for 20 ml of bath | 90 μg/20 ml of bath
2 | 3.5 (≈ 8.89 µM) | 2.25 (≈ 5.72 µM) | O=C(OCCN1CCCCC1)C(Cc1csc2ccccc12)c1ccccc1 (stereo not shown) [Compound 15] | 45.0 μg for 20 ml of bath | 26 μg/20 ml of bath
3 | 0.95 (≈ 2.41 µM) | 2.75 (≈ 6.99 µM) | O=C(OCCCN1CCCC1)C(Cc1csc2ccccc12)c1ccccc1 (stereo not shown) [Compound 20] | 8.0 μg for 20 ml of bath | 25 μg/20 ml of bath
4 | 0.95 (≈ 2.33 µM) | 4 (≈ 9.81 µM) | O=C(OCCCN1CCCCC1)C(Cc1csc2ccccc12)c1ccccc1 (stereo not shown) [Compound 21] | 8.0 μg for 20 ml of bath | 40 μg/20 ml of bath
5 | 0.6 (≈ 1.52 µM) | 7 (≈ 17.8 µM) | O=C(OCCN1CCCC1)C(Cc1ccccc1)Cc1csc2ccccc12 (stereo not shown) [Compound 26] | 5.5 μg for 20 ml of bath | 50 μg/20 ml of bath
6 | 0.6 (≈ 1.47 µM) |  | O=C(OCCN1CCCCC1)C(Cc1ccccc1)Cc1csc2ccccc12 (stereo not shown) [Compound 27] | 6.0 μg for 20 ml of bath | 
7 | 0.7 (≈ 1.66 µM) | 250 (≈ 593 µM) | O=C(OCCN1CCCCCC1)C(Cc1ccccc1)Cc1csc2ccccc12 (stereo not shown) [Compound 28] | 6.5 μg for 20 ml of bath | 750 μg/20 ml of bath
8 | 1.4 (≈ 3.43 µM) | 3.25 (≈ 7.97 µM) | O=C(OCCCN1CCCC1)C(Cc1ccccc1)Cc1csc2ccccc12 (stereo not shown) [Compound 31] | 16.0 μg for 20 ml of bath | 40 μg/20 ml of bath
9 | 0.475 (≈ 1.13 µM) |  | O=C(OCCCN1CCCCC1)C(Cc1ccccc1)Cc1csc2ccccc12 (stereo not shown) [Compound 32] | 4.5 μg for 20 ml of bath | 
10 | 0.425 (≈ 0.976 µM) |  | O=C(OCCCN1CCCCCC1)C(Cc1ccccc1)Cc1csc2ccccc12 (stereo not shown) [Compound 33] | 4.0 μg for 20 ml of bath | 
11 | 0.8 (≈ 1.96 µM) |  | CC(CN1CCCC1)OC(=O)C(Cc1ccccc1)Cc1csc2ccccc12 (stereo not shown) [Compound 34] | 8.0 μg for 20 ml of bath | 

Further lines, the molecule ahead of its results:

Row | SMILES | EC50 [1] [µg/mL] | EC50 [2] [µg/mL] | Spasmolytic activity Papaverinic type DE 30 [1] | Spasmolytic activity Atropinic type DE 30 [2]
12 | C=CCC(Cc1csc2ccccc12)C(=O)OCCN(CC)CC (stereo not shown) [Compound 1] | 0.125 (≈ 0.362 µM) |  | 3.7 μg for 20 ml of bath | 
13 | C=CCC(Cc1csc2ccccc12)C(=O)OCCN1CCCC1 (stereo not shown) [Compound 2] | 1.15 (≈ 3.35 µM) |  | 12.0 μg for 20 ml of bath | 
14 | C=CCC(Cc1csc2ccccc12)C(=O)OCCN1CCCCC1 (stereo not shown) [Compound 3] | 2 (≈ 5.59 µM) |  | 18.0 μg for 20 ml of bath | 
15 | C=CCC(Cc1csc2ccccc12)C(=O)OCCCN1CCCC1 (stereo not shown) [Compound 8] | 4 (≈ 11.2 µM) | 4.5 (≈ 12.6 µM) | 42.0 μg for 20 ml of bath | 55 μg/20 ml of bath
16 | C=CCC(Cc1csc2ccccc12)C(=O)OCCCN1CCCCC1 (stereo not shown) [Compound 9] | 1 (≈ 2.69 µM) |  | 13.0 μg for 20 ml of bath | 
17 | C=CCC(Cc1csc2ccccc12)C(=O)OCCCN1CCCCCC1 (stereo not shown) [Compound 10] | 0.65 (≈ 1.69 µM) |  | 7.2 μg for 20 ml of bath | 
18 | CN(C)CCOC(=O)C(Cc1csc2ccccc12)c1ccccc1 (stereo not shown) [Compound 12] | 2.5 (≈ 7.07 µM) | 5 (≈ 14.1 µM) | 24.0 μg for 20 ml of bath | 50 μg/20 ml of bath
19 | CCN(CC)CCOC(=O)C(Cc1csc2ccccc12)c1ccccc1 (stereo not drawn) [Compound 13, N,N-diethylamino ethyl ester of α-phenyl-β-[(benzo(b)thienyl-3]propionic acid and its oxalate] | 2.25 | 2.1 | 13.0 μg for 20 ml of bath | 30 μg/20 ml of bath
20 | O=C(OCCN1CCOCC1)C(Cc1csc2ccccc12)c1ccccc1 (stereo not shown) [Compound 16] | 5.5 (≈ 13.9 µM) | 22.5 (≈ 56.9 µM) | 38.0 μg for 20 ml of bath | 225 μg/20 ml of bath
21 | CN(C)CCCOC(=O)C(Cc1csc2ccccc12)c1ccccc1 (stereo not shown) [Compound 18] | 1 (≈ 2.72 µM) | 1.75 (≈ 4.76 µM) | 8.0 μg for 20 ml of bath | 22 μg/20 ml of bath
22 | CCN(CC)CCCOC(=O)C(Cc1csc2ccccc12)c1ccccc1 (stereo not shown) [Compound 19] | 1.25 (≈ 3.16 µM) |  | 11.5 μg for 20 ml of bath | 
23 | O=C(OCCCN1CCCCCC1)C(Cc1csc2ccccc12)c1ccccc1 (stereo not shown) [Compound 22] | 0.8 (≈ 1.9 µM) |  | 7.0 μg for 20 ml of bath | 
24 | CC(CN1CCCCC1)OC(=O)C(Cc1csc2ccccc12)c1ccccc1 (stereo not shown) [Compound 23] | 0.35 (≈ 0.859 µM) | 7 (≈ 17.2 µM) | 3.1 μg for 20 ml of bath | 50 μg/20 ml of bath
25 | CN(C)CCOC(=O)C(Cc1ccccc1)Cc1csc2ccccc12 (stereo not shown) [Compound 24] | 1.25 (≈ 3.4 µM) | 10 (≈ 27.2 µM) | 10.0 μg for 20 ml of bath | 90 μg/20 ml of bath
26 | CCN(CC)CCOC(=O)C(Cc1ccccc1)Cc1csc2ccccc12 (stereo not shown) [Compound 25] | 0.9 (≈ 2.28 µM) | 6 (≈ 15.2 µM) | 9.0 μg for 20 ml of bath | 60 μg/20 ml of bath
27 | CN(C)CCCOC(=O)C(Cc1ccccc1)Cc1csc2ccccc12 (stereo not shown) [Compound 29] | 0.425 (≈ 1.11 µM) | 5 (≈ 13.1 µM) | 4.0 μg for 20 ml of bath | 45 μg/20 ml of bath
28 | CCN(CC)CCCOC(=O)C(Cc1ccccc1)Cc1csc2ccccc12 (stereo not shown) [Compound 30] | 0.65 (≈ 1.59 µM) |  | 6.0 μg for 20 ml of bath | 
29 | CCN(CC)CCOC(=O)C(Cc1cccs1)Cc1csc2ccccc12 (stereo not shown) [Compound 36] | 1 (≈ 2.49 µM) | 1.4 (≈ 3.49 µM) | 8.5 μg for 20 ml of bath | 14 μg/20 ml of bath
30 | O=C(OCCN1CCOCC1)C(Cc1cccs1)Cc1csc2ccccc12 (stereo not shown) [Compound 39] | 4 (≈ 9.63 µM) |  | 43.0 μg for 20 ml of bath | 
31 | O=C(OCCCN1CCCCCC1)C(Cc1cccs1)Cc1csc2ccccc12 (stereo not shown) [Compound 45] | 1.35 (≈ 3.06 µM) |  | 14.0 μg for 20 ml of bath | 
32 | CN(C)CCOC(=O)C(Cc1csc2ccccc12)CC1CCCO1 (stereo not shown) [Compound 47] | 0.75 (≈ 2.07 µM) |  | 9.0 μg for 20 ml of bath | 
33 | CN(C)CCCOC(=O)C(Cc1csc2ccccc12)CC1CCCO1 (stereo not shown) [Compound 52] | 0.7 (≈ 1.86 µM) |  | 8.0 μg for 20 ml of bath | 
34 | O=C(OCCCN1CCCCCC1)C(Cc1csc2ccccc12)CC1CCCO1 (stereo not shown) [Compound 56] | 0.8 (≈ 1.86 µM) |  | 10.0 μg for 20 ml of bath | 
35 | CN1C2CCC1CC(OC(=O)C(CO)c1ccccc1)C2 (stereo not shown) [atropine sulphate, reference compound] |  | ≤ 0.005 |  | 
